Assay results from US12509431B2, “1,4-dihydroquinazolinone compounds and uses thereof” (Edgewise Therapeutics, Inc., priority 2022, dated 2025).

Columns and labels:
Assay type in all cases: biochemical
Conditions in all cases: Table 8
Porcine Atria myofibrils = assay: Myofibril ATPase assay (PK/LDH NADH-coupled), atria myofibrils
Experimental: (§1) Myofibril ATPase Assay Procedure: BSA, ATP, NADH, PEP, and DTT solutions were thawed at room temperature, then transferred to ice. Pellet-frozen myofibrils were transferred with approximately twice the required volume into a sufficiently large tube and capped. Myofibrils were thawed by rolling in a water bath for approximately 15 min at room temperature and cooled on ice. Buffers A and B were prepared by adjusting volumes as necessary for required number of wells and stored on ice. 0.5 μL of the compounds to be assayed were added into wells. 25 μL of Buffer A was dispensed into the wells, followed by 25 μL of Buffer B. The wells were measured for absorbance at 340 nm, using a kinetic protocol in which the wells are read every 1.5-2 min for 75 min. Assay data analysis was performed using a python script that filtered the raw data to retain those points falling between a starting and ending time and between a maximum and minimum absorbance, then used the filtered time-domain 340 nm absorbance data in each well to calculate a slope via linear regression analysis in units of mAU/min. Compound slopes were normalized between 100% and 0% activity, where 100% represented the slope of wells containing only compound vehicle, and fit to a 4-parameter logistic model. In addition to the fit parameters, the EC25% is calculated, relative to the 100% normalized value. In the case of inhibitors, EC50% is also calculated, if available. Fit parameters, calculated effective concentrations, filtered raw data, and calculated slopes were exported, in addition to compound-specific graphs of normalized ATPase activity versus concentration in μM.

[1] = biological target: T1, Porcine Ventricle myofibrils (left ventricle of Yucatan minipigs) (Sus scrofa, UniProt P79293); assay: Myofibril ATPase assay (PK/LDH NADH-coupled), ventricle myofibrils
T1 construct: Myofibrils from porcine cardiac muscle was isolated from the left ventricle of Yucatan minipigs; tissue Exemplar Genetics; host or cells: left ventricle of Yucatan minipigs
T1 sequence (P79293 whole entry): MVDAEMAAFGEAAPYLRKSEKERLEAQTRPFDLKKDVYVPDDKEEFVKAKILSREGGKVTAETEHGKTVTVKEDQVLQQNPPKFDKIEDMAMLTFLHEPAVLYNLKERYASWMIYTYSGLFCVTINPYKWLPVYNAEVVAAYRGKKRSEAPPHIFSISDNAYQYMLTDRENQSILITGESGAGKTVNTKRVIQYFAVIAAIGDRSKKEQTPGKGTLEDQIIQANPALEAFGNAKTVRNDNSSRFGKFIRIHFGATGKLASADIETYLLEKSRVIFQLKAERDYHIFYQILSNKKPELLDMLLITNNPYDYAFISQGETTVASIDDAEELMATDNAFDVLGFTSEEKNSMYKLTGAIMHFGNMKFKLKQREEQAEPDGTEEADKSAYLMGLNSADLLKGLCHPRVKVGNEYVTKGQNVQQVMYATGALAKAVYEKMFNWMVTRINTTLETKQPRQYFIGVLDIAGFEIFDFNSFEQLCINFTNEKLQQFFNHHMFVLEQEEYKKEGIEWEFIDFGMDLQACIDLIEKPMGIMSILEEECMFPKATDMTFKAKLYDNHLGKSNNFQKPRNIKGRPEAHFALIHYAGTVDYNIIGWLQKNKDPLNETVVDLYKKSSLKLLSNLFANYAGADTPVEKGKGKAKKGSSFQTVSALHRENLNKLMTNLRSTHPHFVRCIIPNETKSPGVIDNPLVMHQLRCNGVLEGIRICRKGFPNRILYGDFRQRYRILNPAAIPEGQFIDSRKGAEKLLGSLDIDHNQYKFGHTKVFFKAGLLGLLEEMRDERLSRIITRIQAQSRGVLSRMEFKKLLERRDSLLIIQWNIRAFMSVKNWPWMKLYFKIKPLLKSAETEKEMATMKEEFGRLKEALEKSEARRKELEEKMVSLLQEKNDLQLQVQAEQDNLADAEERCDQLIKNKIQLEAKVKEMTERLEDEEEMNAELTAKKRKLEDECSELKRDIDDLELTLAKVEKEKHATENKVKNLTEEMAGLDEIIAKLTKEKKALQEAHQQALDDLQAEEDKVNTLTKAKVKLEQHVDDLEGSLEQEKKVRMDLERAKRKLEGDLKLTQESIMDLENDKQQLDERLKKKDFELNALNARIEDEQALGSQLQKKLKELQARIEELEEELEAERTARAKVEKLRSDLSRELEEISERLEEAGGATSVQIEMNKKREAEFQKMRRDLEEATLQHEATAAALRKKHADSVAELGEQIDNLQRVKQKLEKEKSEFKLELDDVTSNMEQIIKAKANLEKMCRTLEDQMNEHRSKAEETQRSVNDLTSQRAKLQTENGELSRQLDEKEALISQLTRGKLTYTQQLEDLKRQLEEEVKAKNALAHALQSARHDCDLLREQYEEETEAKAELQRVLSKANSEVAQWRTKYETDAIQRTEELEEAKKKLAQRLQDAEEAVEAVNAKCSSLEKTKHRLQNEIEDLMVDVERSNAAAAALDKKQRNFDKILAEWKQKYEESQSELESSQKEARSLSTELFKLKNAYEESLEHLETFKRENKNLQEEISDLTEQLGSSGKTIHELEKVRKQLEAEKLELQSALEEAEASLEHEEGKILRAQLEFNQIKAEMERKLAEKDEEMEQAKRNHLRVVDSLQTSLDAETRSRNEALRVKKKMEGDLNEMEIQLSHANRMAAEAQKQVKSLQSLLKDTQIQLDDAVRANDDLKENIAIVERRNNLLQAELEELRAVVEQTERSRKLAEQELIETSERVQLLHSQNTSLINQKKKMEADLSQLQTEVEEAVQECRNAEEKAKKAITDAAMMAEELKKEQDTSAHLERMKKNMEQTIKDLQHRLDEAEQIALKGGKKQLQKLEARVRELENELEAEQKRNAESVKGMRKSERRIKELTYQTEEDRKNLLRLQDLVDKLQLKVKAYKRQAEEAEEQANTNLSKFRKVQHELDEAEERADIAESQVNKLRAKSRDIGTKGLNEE
Experimental: (§2) Myofibril ATPase assays are known in the art to be useful in evaluating small molecules for the treatment of HCM and other cardiac indications. Myosin ATPase activity is assessed by using a coupled reaction system, in which ADP generated by the myosin ATPase function is coupled to the disappearance of NADH through the pyruvate kinase/lactate dehydrogenase (PK-LDH) system. ATPase activity produces ADP, which is used as a substrate for PK to produce pyruvate and regenerate ATP. The pyruvate is then used as a substrate by LDH to oxidize NADH to NAD+. The rate of the reaction is monitored through the time-dependent disappearance of NADH using absorbance at 340 nm, which, when the couple system is in stoichiometric excess, is directly correlated to the ATPase activity of the myosin. Inhibition of ATPase activity by the assayed compounds is indicated by a reduced rate of NADH loss, relative to vehicle-treated controls, over the experimental time window. Rabbit Skeletal and Porcine Ventricle are the primary sources of myofibril material.
(§3) Materials: The following stock solutions and reagents were used in the Myofibril ATPase Assay:
(§4) Stock Solutions of pCa buffer. Combine PIPES, CaCl2), and EGTA solutions with water. Adjust pH to 7.0 and bring final volume to 100 mL.
(§5) Buffer A & Buffer B. Prepare buffers A and B according to the table below.
as §1
Cardiac Myofibril Isolation:
Myofibrils from porcine cardiac muscle was isolated from the left ventricle of Yucatan minipigs. Myofibrils were prepared using a method based upon those described in Herrmann et al. (1993) and summarized here. Minced tissue was homogenized for 50 sec with a Polytron homogenizer into 10 volumes (relative to weight in grams) of Isolation Buffer A (75 mM KCl, 10 mM Imidazole, 2 mM MgCl2, 2 mM EGTA, 1 mM NaN3, 1% v/v Triton X-100) supplemented with 4 mM Phosphocreatine, 1 mM ATP, 50 mM BDM, 1 mM DTT, 1 mM Benzamide HCl, 0.1 mM PMSF, 10 μM leupeptin, 5 μM pepstatin, and 10 mM EDTA. The myofibrils were recovered by centrifugation (Beckman Allegra 6R, 1200 g, 15 min) and resuspended in 10 volumes Isolation Buffer B (Buffer A above without supplemental reagents). The myofibrils were further homogenized described above and recovered by centrifugation for 7 mins. Cellular membranes and debris were removed by 3 washes in Isolation Buffer B, centrifuging each as before. […]

[2] = test system: Rabbit Skeletal myofibrils (rabbit psoas muscle); assay: Myofibril ATPase assay (PK/LDH NADH-coupled), skeletal myofibrils
Experimental: as §2, §3, §4, §5, §1
Skeletal Myofibril Isolation:
Myofibrils from various animals and tissue types were acquired from a variety of sources: rabbit psoas muscle was purchased from Pel-Freez Biologicals (Rogers, AR) and porcine cardiac muscle was purchased from Exemplar Genetics. All myofibrils were prepared using a method based upon those described in Herrmann et al. (1993) and summarized here. Minced tissue was homogenized for 50 sec with a Polytron homogenizer into 10 volumes (relative to weight in grams) of Isolation Buffer A (50 mM Tris, pH 8.0, 0.1 M potassium acetate, 5 mM KCl, 2 mM DTT, 5 mM EDTA, 0.5% v/v Triton X-100) supplemented with 0.1 mM PMSF, 10 μM leupeptin, 5 μM pepstatin, and 0.5 mM sodium azide. The myofibrils were recovered by centrifugation (Beckman Allegra 6R, 1200 g, 10 min) and resuspended in 10 volumes Isolation Buffer B (Buffer A above without protease inhibitors or sodium azide). The myofibrils were further homogenized as before and recovered by centrifugation. […]

SMILES | Porcine Atria IC25 (Porcine Atria myofibrils) | Porcine Ventricle IC25 [1] | Rabbit Psoas IC25 [2]
Cc1cc(C#N)cnc1[C@@H](C)NC(=O)CN1Cc2c(ccc(F)c2F)NC1=O [Compound B8] | 430 nM | 603.9 nM | 1018 nM
Cc1cc(C#N)cnc1[C@H](C)NC(=O)CN1Cc2c(ccc(F)c2F)NC1=O [Compound B9] | 40 nM | 37.9 nM | 22.4 nM
C[C@@H](NC(=O)CN1Cc2c(F)cc(C#N)cc2NC1=O)c1ccc(C#N)cc1F [Compound B10] | 100000 nM | 8204 nM | 29080 nM
C[C@H](NC(=O)CN1Cc2c(F)cc(C#N)cc2NC1=O)c1ccc(C#N)cc1F [Compound B11, N-[(1S)-1-(4-Cyano-2-fluorophenyl)ethyl]-2-(7-cyano-5-fluoro-2-oxo-1,4-dihydroquinazolin-3-yl)acetamide] | 100000 nM | 100000 nM | 49640 nM
Cc1cc(F)c2c(c1)NC(=O)N(CC(=O)N[C@H](C)c1ccc(C#N)cc1F)C2 [Compound B12] | 880 nM | 143 nM | 760.6 nM
Cc1cc(F)c2c(c1)NC(=O)N(CC(=O)N[C@@H](C)c1ccc(C#N)cc1F)C2 [Compound B13, N-[(1S)-1-(4-Cyano-2-fluorophenyl)ethyl]-2-(5-fluoro-7-methyl-2-oxo-1,4-dihydroquinazolin-3-yl)acetamide] | 60 nM | 86 nM | 13.2 nM
CCc1cc(F)cnc1[C@@H](C)NC(=O)CN1Cc2c(ccc(F)c2F)NC1=O [Compound B14] | 150 nM | 84.4 nM | 93.4 nM
CCc1cc(F)cnc1[C@H](C)NC(=O)CN1Cc2c(ccc(F)c2F)NC1=O [Compound B15] | 100000 nM | 100000 nM | 100000 nM
C[C@@H](NC(=O)CN1Cc2c(ccc(F)c2F)NC1=O)c1ccc(C#N)nn1 [Compound B16] | 230 nM | 1057 nM | 1205 nM
O=C(CN1Cc2c(ccc(F)c2F)NC1=O)N[C@@H]1CS(=O)(=O)c2cc(F)cc(F)c21 [Compound B18] | 2250 nM | 100000 nM | 100000 nM
O=C(CN1Cc2c(ccc(F)c2F)NC1=O)N[C@H]1CS(=O)(=O)c2cc(F)cc(F)c21 [Compound B19] | 100000 nM | 100000 nM | 100000 nM
CC(C)c1cc(F)cnc1[C@@H](C)NC(=O)CN1Cc2c(ccc(F)c2F)NC1=O [Compound B20] | 100000 nM | 100000 nM | 100000 nM
CC(C)c1cc(F)cnc1[C@H](C)NC(=O)CN1Cc2c(ccc(F)c2F)NC1=O [Compound B21] | 100000 nM | 100000 nM | 100000 nM
Cc1cc(C#N)nnc1[C@@H](C)NC(=O)CN1Cc2c(ccc(F)c2F)NC1=O [Compound B22] | 10830 nM | 6451 nM | 901.2 nM
Cc1ccnnc1[C@@H](C)NC(=O)CN1Cc2c(ccc(F)c2F)NC1=O [Compound B24] | 100000 nM | 100000 nM | 30610 nM
C[C@@H](NC(=O)CN1Cc2cc(F)cc(C#N)c2NC1=O)c1ccc(C#N)cc1F [Compound B26] | 100000 nM | 100000 nM | 100000 nM
C[C@H](NC(=O)CN1Cc2cc(F)cc(C#N)c2NC1=O)c1ccc(C#N)cc1F [Compound B27] | 2100 nM | 15590 nM | 542.2 nM
C[C@@H](NC(=O)CN1Cc2cc(F)cc(F)c2NC1=O)c1ccc(C#N)cc1F [Compound B28] | 6240 nM | 100000 nM | 100000 nM
C[C@H](NC(=O)CN1Cc2cc(F)cc(F)c2NC1=O)c1ccc(C#N)cc1F [Compound B29] | 110 nM | 682.4 nM | 124.5 nM
Cc1ccc2c(c1F)CN(CC(=O)N[C@H](C)c1ccc(C#N)cc1F)C(=O)N2 [Compound B30] | 70 nM | 100000 nM | 100000 nM
Cc1ccc2c(c1F)CN(CC(=O)N[C@@H](C)c1ccc(C#N)cc1F)C(=O)N2 [Compound B31, N-[(1S)-1-(4-cyano-2-fluorophenyl)ethyl]-2-(5-fluoro-6-methyl-2-oxo-1,4-dihydroquinazolin-3-yl)acetamide] | 20 nM | 42.1 nM | 10 nM
C[C@@H](NC(=O)CN1Cc2c(F)cc(Cl)cc2NC1=O)c1ccc(C#N)cc1F [Compound B32] | 280 nM | 548 nM | 1003 nM
C[C@H](NC(=O)CN1Cc2c(F)cc(Cl)cc2NC1=O)c1ccc(C#N)cc1F [Compound B33, 2-(7-Chloro-5-fluoro-2-oxo-1,4-dihydroquinazolin-3-yl)-N-[(1S)-1-(4-cyano-2-fluorophenyl)ethyl]acetamide] | 20 nM | 66.7 nM | 9.3 nM
Cc1cc([C@@H](C)NC(=O)CN2Cc3c(ccc(F)c3F)NC2=O)ncc1C#N [Compound B34] | 160 nM | 3618 nM | 100000 nM
